For one assay, the target named is VIM-1 (Pseudomonas aeruginosa, UniProt A0A0F7KYQ8). Put plainly: Enzyme activity: determination of IC50, fluorescence assay with CCF2-FA substrate (VIM-1). The format is biochemical. Particulars: 30 pM enzyme, 1.25 μM CCF2-FA, 2 hours at 25° C.; read-out: VIM1 IC50. An outline of the steps: (§1)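 In pH 7 phosphate buffer (100 mM) with 10 μM ZnSO4 and 0.005% Tween-20, CCF2-FA hydrolysis (1.25 μM) by 1 pM NDM-1, 2 pM IMP-1 or 30 pM VIM-1 was run 2 h at 25° C with inhibitor from 20 to 0.00063 μM. Ex 405/em 460 nm signal fitted to a 4-parameter curve for IC50.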

Assay [1] deals with P. aeruginosa MB9798 (efflux WT, IMP-1). Nature of the assay: Efflux: concentration of MBL inhibitor restoring susceptibility to imipenem (MITC95), efflux+ strain. Format: cell-based, Pseudomonas aeruginosa. To be noted: imipenem at 2 μg/mL in the presence of a class A, C, D serine β-lactamase inhibitor closely related to relebactam. In a few lines:
(§2)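 Isogenic P. aeruginosa PAO1 strains, efflux+ and efflux−, transformed with IMP-1 plasmid, were tested by microbroth MIC with fixed imipenem, usually at CLSI breakpoint, plus fixed class A/C β-lactamase inhibitor against AmpC. MBL inhibitor was serially titrated; the concentration restoring susceptibility was recorded.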

A further assay deals with NDM-1 (Klebsiella pneumoniae, UniProt C7C422). Nature of the assay: Enzyme activity: determination of IC50, fluorescence assay with CCF2-FA substrate (NDM-1). Format: biochemical. Particulars: 1 pM enzyme, 1.25 μM CCF2-FA, 2 hours at 25° C.; read-out: NDM1 IC50. In a few lines: as §1
Sequence of NDM-1 (C7C422 29-270, looked up, species assumed): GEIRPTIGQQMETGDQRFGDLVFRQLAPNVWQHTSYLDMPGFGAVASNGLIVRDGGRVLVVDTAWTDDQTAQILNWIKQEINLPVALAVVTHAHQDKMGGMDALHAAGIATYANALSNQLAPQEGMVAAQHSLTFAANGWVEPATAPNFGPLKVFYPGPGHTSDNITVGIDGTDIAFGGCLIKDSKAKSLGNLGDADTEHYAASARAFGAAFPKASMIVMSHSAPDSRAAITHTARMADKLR
For assay [2], the system named is Escherichia coli expressing NDM-1 (CLB30016). Put plainly: Antibiotic potentiation activity: synergistic concentration (MITC95) with imipenem. The format is cell-based. To be noted: imipenem 1 μg/mL; lowest concentration inhibiting 95% of growth; 35° C., 22-24 hours. An outline of the steps: (§3)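 Clinical MBL-expressing strains diluted into 1.1× CAMHB were incubated with compound plus imipenem at 1 μg/mL for 22–24 h at 35 °C, then absorbance was read. MITC95 is the lowest compound concentration giving 95% growth inhibition in the presence of imipenem.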

Assay [3] deals with Serratia marcescens expressing IMP-1 (CL5741). The assay is described as above. Format: cell-based. Particulars: imipenem 1 μg/mL; lowest concentration inhibiting 95% of growth; 35° C., 22-24 hours. An outline of the steps: as §3
The subject of assay [4] is Klebsiella pneumoniae expressing VIM-1 (IHMA599644). Described as above. The format is cell-based. To be noted: imipenem 1 μg/mL; lowest concentration inhibiting 95% of growth; 35° C., 22-24 hours. An outline of the steps: as §3
Assay [5] has as its system P. aeruginosa MB9799 (efflux mutant, IMP-1). Nature of the assay: Efflux: concentration of MBL inhibitor restoring susceptibility to imipenem (MITC95), efflux− strain. The format is cell-based, Pseudomonas aeruginosa. Particulars: imipenem at 2 μg/mL in the presence of a class A, C, D serine β-lactamase inhibitor closely related to relebactam. An outline of the steps:
as §2

In a further assay the target is IMP-1 (Serratia marcescens, UniProt P52699). Put plainly: Enzyme activity: determination of IC50, fluorescence assay with CCF2-FA substrate (IMP-1). The format is biochemical. To be noted: 2 pM enzyme, 1.25 μM CCF2-FA, 2 hours at 25° C.; read-out: IMP1 IC50. In a few lines:
as §1

In another assay the target is VIM-2 (Escherichia coli, UniProt Q5U7L7). Nature of the assay: Enzyme activity: determination of IC50 (VIM-2). The format is biochemical. To be noted: read-out: VIM2 IC50.

Sequence of IMP-1 (P52699 19-246, looked up, species assumed): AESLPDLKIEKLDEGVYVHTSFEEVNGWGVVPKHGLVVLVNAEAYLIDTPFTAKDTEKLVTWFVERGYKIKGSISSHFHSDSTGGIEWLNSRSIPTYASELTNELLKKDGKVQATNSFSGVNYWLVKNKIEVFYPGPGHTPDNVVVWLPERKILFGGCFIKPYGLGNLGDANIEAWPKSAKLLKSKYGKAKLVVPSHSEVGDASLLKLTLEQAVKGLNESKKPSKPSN

The IC50 is the concentration that inhibits the measured activity by half. With `NS(=O)(=O)c1c(S(=O)(=O)N[C@@H]2CCNC2)ccc(N2CCc3ncc(O)cc3C2)c1-c1nnn[nH]1` [Example 24, 4-(3-hydroxy-7,8-dihydro-1,6-naphthyridin-6(5H)-yl)-N1-[(3R)-pyrrolidin-3-yl]-3-(1H-tetrazol-5-yl)benzene-1,2-disulfonamide], the IC50 at VIM-1 worked out at 0.19 nM; at NDM-1 it was 0.28 nM; at IMP-1, 1.39 nM; at VIM-2, 0.74 nM. Besides, the “MB9798 MITC95 P. aeruginosa Efflux WT” value in assay [1] turned out to be 25.00 µM. Besides, the “CLB30016 E.coli MITC95 NDM” value in assay [2] was 0.39 µM. In [3], the “CL5741 S.marcescens MITC95 uM IMP” value was determined as 1.56 µM. Further, the “IHMA599644 K.pneumoniae MITC95 uM VIM” value in assay [4] worked out at 3.13 µM. Besides, the “MB9799 MITC95 P. aeruginosa Efflux Mutant” value in [5] stood at 3.13 µM.

For the compound `NS(=O)(=O)c1c(S(=O)(=O)N[C@@H]2CCNC2)ccc(N2CCc3nc(O)ccc3C2)c1-c1nnn[nH]1` [Example 25, 4-(2-hydroxy-7,8-dihydro-1,6-naphthyridin-6(5H)-yl)-N1-[(3R)-pyrrolidin-3-yl]-3-(1H-tetrazol-5-yl)benzene-1,2-disulfonamide], the IC50 was determined as 1.1 nM at VIM-1, 3.09 nM on NDM-1, 6.11 nM at IMP-1 and 4.79 nM at VIM-2. Besides, the “MB9798 MITC95 P. aeruginosa Efflux WT” value in assay [1] worked out at 6.25 µM. For the same compound, in assay [2], the “CLB30016 E.coli MITC95 NDM” value was 0.39 µM. Also, the “CL5741 S.marcescens MITC95 uM IMP” value in assay [3] was 0.78 µM. Besides, the “IHMA599644 K.pneumoniae MITC95 uM VIM” value in assay [4] was 1.56 µM. In assay [5], the “MB9799 MITC95 P. aeruginosa Efflux Mutant” value is 0.78 µM.

Regarding `NS(=O)(=O)c1c(S(=O)(=O)N[C@@H]2CCNC2)ccc(N2CCc3[nH]nnc3C2)c1-c1nnn[nH]1` [Example 26, N1-[(3R)-pyrrolidin-3-yl]-4-(1,4,6,7-tetrahydro-5H-[1,2,3]triazolo[4,5-c]pyridin-5-yl)-3-(1H-tetrazol-5-yl)benzene-1,2-disulfonamide], the IC50 on VIM-1 came out at 1.75 nM; at NDM-1 it was 2.14 nM; on IMP-1, 5.97 nM; at VIM-2, 5.08 nM. Also, the “MB9798 MITC95 P. aeruginosa Efflux WT” value in [1] was 6.25 µM. In addition, in assay [2], the “CLB30016 E.coli MITC95 NDM” value worked out at 0.78 µM. For the same compound, the “CL5741 S.marcescens MITC95 uM IMP” value in assay [3] worked out at 1.56 µM. For the same compound, the “IHMA599644 K.pneumoniae MITC95 uM VIM” value in assay [4] turned out to be 3.13 µM. In addition, the “MB9799 MITC95 P. aeruginosa Efflux Mutant” value in [5] is 0.78 µM.

On to `Cc1cc2c(c(C)n1)CCN2c1ccc(S(=O)(=O)N[C@@H]2CCNC2)c(S(N)(=O)=O)c1-c1nnn[nH]1` [Example 27, 4-(4,6-dimethyl-2,3-dihydro-1H-pyrrolo[3,2-c]pyridin-1-yl)-N1-[(3R)-pyrrolidin-3-yl]-3-(1H-tetrazol-5-yl)benzene-1,2-disulfonamide], for which the IC50 at VIM-1 was found to be 0.14 nM; at NDM-1, 5 nM; at IMP-1 it was 84 nM; on VIM-2, 1.37 nM. Also, the “MB9798 MITC95 P. aeruginosa Efflux WT” value in assay [1] was 50.00 µM. Besides, in [2], the “CLB30016 E.coli MITC95 NDM” value was 1.56 µM. The “CL5741 S.marcescens MITC95 uM IMP” value in [3] came to 6.25 µM. Moreover, the “IHMA599644 K.pneumoniae MITC95 uM VIM” value in [4] came out at 3.13 µM. Moreover, the “MB9799 MITC95 P. aeruginosa Efflux Mutant” value in assay [5] stood at 3.13 µM.

With `CNC(=O)c1nsc2c1CCN(c1ccc(S(=O)(=O)N[C@@H]3CCNC3)c(S(N)(=O)=O)c1-c1nnn[nH]1)C2` [Example 28, N-methyl-6-{4-[(3R)-pyrrolidin-3-ylsulfamoyl]-3-sulfamoyl-2-(1H-tetrazol-5-yl)phenyl}-4,5,6,7-tetrahydroisothiazolo[5,4-c]pyridine-3-carboxamide], the IC50 at VIM-1 turned out to be 0.15 nM; on NDM-1 it was 0.21 nM; on IMP-1 it was 0.28 nM; at VIM-2 it was 0.48 nM. Besides, in assay [1], the “MB9798 MITC95 P. aeruginosa Efflux WT” value came to 12.50 µM. Besides, the “CLB30016 E.coli MITC95 NDM” value in [2] turned out to be 0.78 µM. For the same compound, the “CL5741 S.marcescens MITC95 uM IMP” value in assay [3] was 1.56 µM. Moreover, the “IHMA599644 K.pneumoniae MITC95 uM VIM” value in assay [4] amounted to 6.25 µM. Further, the “MB9799 MITC95 P. aeruginosa Efflux Mutant” value in assay [5] amounted to 3.13 µM.

For `Nc1nc2c(s1)CN(c1ccc(S(=O)(=O)N[C@@H]3CCNC3)c(S(N)(=O)=O)c1-c1nnn[nH]1)CC2` [Example 29, 4-(2-amino-6,7-dihydro[1,3]thiazolo[5,4-c]pyridin-5(4H)-yl)-N1-[(3R)-pyrrolidin-3-yl]-3-(1H-tetrazol-5-yl)benzene-1,2-disulfonamide], the IC50 on VIM-1 came out at 8.27 nM; on NDM-1, 6.28 nM; at IMP-1, 7.11 nM; at VIM-2 it was 32.8 nM. In assay [1], the “MB9798 MITC95 P. aeruginosa Efflux WT” value was 25.00 µM. Moreover, in assay [2], the “CLB30016 E.coli MITC95 NDM” value is 1.56 µM. Moreover, the “CL5741 S.marcescens MITC95 uM IMP” value in assay [3] was determined as 1.56 µM. Also, the “IHMA599644 K.pneumoniae MITC95 uM VIM” value in assay [4] is 12.50 µM. The “MB9799 MITC95 P. aeruginosa Efflux Mutant” value in assay [5] was found to be 0.78 µM.

In the case of `NS(=O)(=O)c1c(S(=O)(=O)N[C@@H]2CCNC2)ccc(N2CCc3[nH]ncc3C2)c1-c1nnn[nH]1` [Example 30, N1-[(3R)-pyrrolidin-3-yl]-4-(1,4,6,7-tetrahydro-5H-pyrazolo[4,3-c]pyridin-5-yl)-3-(1H-tetrazol-5-yl)benzene-1,2-disulfonamide], the IC50 worked out at 0.25 nM on VIM-1, 0.19 nM at NDM-1, 1.11 nM at IMP-1 and 0.98 nM on VIM-2. In assay [1], the “MB9798 MITC95 P. aeruginosa Efflux WT” value was determined as 6.25 µM. For the same compound, in assay [2], the “CLB30016 E.coli MITC95 NDM” value worked out at 0.78 µM. Besides, the “CL5741 S.marcescens MITC95 uM IMP” value in [3] was found to be 1.56 µM. For the same compound, the “IHMA599644 K.pneumoniae MITC95 uM VIM” value in assay [4] was 6.25 µM. The “MB9799 MITC95 P. aeruginosa Efflux Mutant” value in assay [5] is 1.56 µM.

Turning to `NS(=O)(=O)c1c(S(=O)(=O)N[C@@H]2CCNC2)ccc(N2CCc3[nH]cnc3C2)c1-c1nnn[nH]1` [Example 31, N1-[(3R)-pyrrolidin-3-yl]-4-(1,4,6,7-tetrahydro-5H-imidazo[4,5-c]pyridin-5-yl)-3-(1H-tetrazol-5-yl)benzene-1,2-disulfonamide], the IC50 at VIM-1 was 0.59 nM; on NDM-1, 1.13 nM; on IMP-1, 7 nM; on VIM-2, 3.3 nM. In addition, the “MB9798 MITC95 P. aeruginosa Efflux WT” value in [1] was 3.13 µM. Also, in [2], the “CLB30016 E.coli MITC95 NDM” value turned out to be 0.20 µM. Moreover, the “CL5741 S.marcescens MITC95 uM IMP” value in assay [3] turned out to be 0.78 µM. The “IHMA599644 K.pneumoniae MITC95 uM VIM” value in assay [4] was determined as 3.13 µM. Further, in [5], the “MB9799 MITC95 P. aeruginosa Efflux Mutant” value worked out at 0.78 µM.

As for `NS(=O)(=O)c1c(S(=O)(=O)N[C@@H]2CCNC2)ccc(N2CCc3cccnc32)c1-c1nnn[nH]1` [Example 32, 4-(2,3-dihydro-1H-pyrrolo[2,3-b]pyridin-1-yl)-N1-[(3R)-pyrrolidin-3-yl]-3-(1H-tetrazol-5-yl)benzene-1,2-disulfonamide], the IC50 amounted to 0.17 nM on VIM-1, 0.21 nM at NDM-1, 1.14 nM on IMP-1 and 0.39 nM at VIM-2. In addition, the “MB9798 MITC95 P. aeruginosa Efflux WT” value in assay [1] was 3.13 µM. Further, the “CLB30016 E.coli MITC95 NDM” value in assay [2] was 1.56 µM. Moreover, the “CL5741 S.marcescens MITC95 uM IMP” value in assay [3] came to 1.56 µM. For the same compound, the “IHMA599644 K.pneumoniae MITC95 uM VIM” value in assay [4] was 3.13 µM. The “MB9799 MITC95 P. aeruginosa Efflux Mutant” value in [5] was 1.56 µM.
